In patent US4784988A, “Peptides correlated to lysozyme” (Spa Societa' Prodotti Antibiotici S.p.A., priority 1985, dated 1988):
Where no end group is shown, it is not given here.

Assays:
[1] = test system: cell colony-forming capacity; format: cell-based
herpes simplex Type 1 = test: herpes simplex virus plaque formation on Vero cell monolayers; format: cell-based; details: herpes simplex Type 1, Vero cells, 72 hours' incubation
Experimental: Yet other example, the mixture and the peptides of the present invention resulted active in an antiviral sense in numerous cases. They were submitted to various tests to verify their influence on the capacity of the herpes simplex virus to infect and form plaques on monolayer cell cultures. To this purpose, a viral strain of herpes simplex Type 1 at suitable concentration was added to monolayers of Vero cells (Flow). After being in contact for 1 hour, the virus was removed and the monolayer washed and then covered with fresh culture medium […] (Flow), adding at the end suitable quantities of the substance under test. After 72 hours' incubation, the plates were coloured with neutral red and the visible plaques counted. […] Similar results were obtained with a peptide fraction isolated in an analogous manner after hydrolysis of lysozyme with trypsin and chymotrypsin. Even more surprising results were obtained with peptides such as (I) or (III) which resulted capable of inducing analogous reductions in the viral plaque-forming units at considerably lower concentrations (0.1-1 mg/ml).

hyperalgesia of the paw = test: Randall-Selitto test, painful threshold on compression of the paw made hyperalgesic with brewer's yeast; format: in vivo, rats; details: rat, brewer's yeast 10 mg/rat, product injected in the paw, after 3 hours, vs irritant alone
Text: With regard to the biological activity of the peptide mixtures obtained by enzymatic hydrolysis of lysozyme, like many of the peptides isolated at the pure state and/or reproduced through synthesis, it is observed, as previously reported, that they lack the bacteriolytic activity typical of the integral lysozyme structure, whereas they present important pharmacological and therapeutic properties. It was therefore possible for example to evidence a marked analgesic activity of numerous peptides, by testing their anti-nociceptive effects on laboratory animals using the well-known Randall-Selitto method.
In groups of 5-10 rats, hyperalgesia of the paw is induced by administering an irritant agent, for example brewer's yeast (10 mg/rat), into the planter aponeurosis and at the same time injecting the product under test at different doses. One group of rats is treated with the irritant agent alone. At intervals, in particular after 3 hours, the painful threshold on compression of the edematous paw is measured, i.e. the minimum pressure (in g) causing the sudden withdrawal of the paw of the animal.
The results are expressed as percentage increase in the mean painful threshold compared to the paw treated with the algogenic agent alone (without the drug). As an example, the data relative to the peptide mixture denominated "Fraction P.2" of chromatographic origin (See Scheme 1) are reported, as well as the individual peptides (I), (II) and (III).

[2] = format: physicochemical
Experimental: Having obtained the desired peptide sequence, it is then necessary to proceed with the splitting from the solid support and deprotection of the residual functional groups, which is carried out by action of gaseous hydrobromic acid on the peptide-resin suspension, working in trifluoroacetic acid and in presence of adequate quantities of anisole.

Substance	cytotoxic effects (cell colony-forming capacity) [1]	concentration inducing analogous reductions in the viral plaque-forming units (herpes simplex Type 1)	Δ% of the algogenic threshold (hyperalgesia of the paw; dose 2 mg/rat)	Δ% of the algogenic threshold (hyperalgesia of the paw; dose 1 mg/rat)	Δ% of the algogenic threshold (hyperalgesia of the paw; dose 4 mg/rat)	inhibition of the viral capacity to form plaques (herpes simplex Type 1; 5 mg/ml)	solubility in water [2]	Δ% of the algogenic threshold (hyperalgesia of the paw; dose 0.5 mg/rat)	Δ% of the algogenic threshold (hyperalgesia of the paw; dose 0.75 mg/rat)
NTQATNRNTDGSTDY [peptide (I)]	devoid of cytotoxic effects	0.1-1 mg/ml	120%	–	–	–	–	–	–
NTQATNR [peptide (III)]	devoid of cytotoxic effects	0.1-1 mg/ml	60%	30%	100%	–	–	–	–
lysozyme: small globular protein of 129 amino acid residues extracted from hen egg-white	–	–	–	–	–	75%	–	–	–
NTDGSTDY [peptide (II)]	–	–	–	90%	–	–	very soluble in water	30%	60%
